Laboratory results from patent publication US20130158112A1, “COMPOSITIONS AND METHODS FOR INHIBITING BETA AMYLOID SECRETION” (priority 2011, published 2013).

How the values were obtained:
Aβ secretion = experiment: Secreted total Aβ ELISA in conditioned media of H4βAPP695 wt cells; format: cell-based, human; conditions: for inhibition at 10 µM / inhibition at 30 µM: Homo sapiens, 24 h, H4βAPP695 wt cells; for inhibition at 10 µM: read-out: Total Aβ (% decrease) 10 μM Mean; for inhibition at 30 µM: read-out: Total Aβ (% decrease) 30 μM Mean; for Aβ secretion inhibiting activity (structure activity summary): in words
Method: H4βAPP695 wt cells, a human […] cell line stably transfected with a wtβAPP695 expression vector construct under the control of a CMV promoter (kindly provided by Dr. Chris Eckman from Mayo Clinic, Florida) were cultured as previously described. Twenty-four hours before drug treatment, the media was replaced with serum-free media. Cells were then incubated with drugs (dissolved in DMSO) or vehicle for 24 h for collection of conditioned media and cell lysates. For the PKC inhibitors experiment, three inhibitors were treated 30 min prior to drug challenge. Primary cortical neurons were prepared from embryonic day 18 APP and presenilin 1 (APPswe, PSEN1dE9) transgenic mice on the C57BL/6 genetic background (Jackson Laboratories, strain no. 5864) as previously described. THLE-3 human hepatoma cells (from ATCC) were plated in 24-well plates that were precoated with 10 μg/mL bovine serum albumin, 10 μg/mL fibronectin, and 30 μg/mL bovine type I collagen. The cells were grown in BEGM media (Clonetics) until confluent and treated with drugs at 20 μM for 24 h. This conditioned media was harvested, diluted 1:1 in serum-free medium, and incubated with H4βAPP695 wt cells for 24 h prior to analysis of secreted Aβ, which was compared to the effect of 10 μM drug treatments without prior incubation with the THLE-3 cells. Caco-2 cells (ATCC) were plated in 12-well plates with Transwell inserts (Costar) at 70000 cells per well and grown for 21 days. The media volume of the apical and basal chambers was 0.5 and 1.5 mL, respectively. Transepithelial resistance was measured in each well and found to be >160 Ω/cm^2. Drugs at 40 μM and 20 μg/mL of lucifer yellow were added in serum-free medium to the apical chamber. Four hours later, the basal chamber media was harvested and used to measure lucifer yellow fluorescence to confirm monolayer integrity as well as for treatment of H4βAPP695 wt cells for 24 h prior to analysis of secreted Aβ, which was compared to the effect of direct addition of 10 μM of the corresponding drug.

H4βAPP695 wt cells = experiment: Cytotoxicity by total cell protein content (BCA) of H4βAPP695 wt cells; conditions: cytotoxicity
Method: Cells were washed with cold phosphate buffered saline (PBS) and lysed on ice by vigorous mixing over 15 min with RIPA buffer containing 50 mM Tris-HCl (pH 8.0), 150 mM sodium chloride, 1% NP-40, 0.5% sodium deoxycholate, and 0.1% SDS, supplemented with 10% protease inhibitor cocktail and 2 mM PMSF. After centrifugation at 14000 g for 30 min to remove nuclei and other debris at 4° C., the protein content of the supernatants was measured using the BCA assay kit (Pierce).
The initial screen was performed in 96-well plates with drugs distributed by the hanging drop method yielding estimated drug levels of 10-25 μM. Total Aβ levels in the 24 h conditioned media were measured by a sandwich ELISA assay, and cytotoxicity was assessed by methylene blue staining of the cells in the wells, as previously described.

Row | SMILES | melting point [°C] | inhibition at 10 µM (Aβ secretion) [%] | inhibition at 30 µM (Aβ secretion) [%] | Aβ secretion inhibiting activity (structure activity summary) (Aβ secretion) | Cell protein (% decrease) 10 μM Mean (H4βAPP695 wt cells) [%] | Cell protein (% decrease) 30 μM Mean (H4βAPP695 wt cells) [%]
1 | O=C(NCCS(=O)(=O)Cc1cccc(O)c1)c1c(Cl)cccc1Cl [Compound 31, 2,6-Dichloro-N-[2-(3-hydroxy-phenylmethanesulfonyl)-ethyl]-benzamide] | 139 to 141 | -10.1 | 9.6 | No tested substitutions in the linker region were well tolerated | 7.7 | 4.4
2 | COc1cccc(OC)c1C(=O)NCCSCc1cccc(Cl)c1 [Compound 36, N-[2-(3-Chloro-benzylsulfanyl)-ethyl]-2,6-dimethoxy-benzamide] | 90 to 91 | -13.1 | 11.2 | not well tolerated | 7.1 | −0.6
3 | Nc1cccc(CSCCNC(=O)c2c(Cl)cccc2Cl)c1 [Compound 41, N-[2-(3-Amino-benzylsulfanyl)-ethyl]-2,6-dichloro-benzamide] | 55 to 56 | 0.1 | 17 | did not yield good activity | 15.3 | 13.1
4 | O=C(NCCSCc1cccc(Br)c1)c1c(Cl)cccc1Cl [Compound 51, N-[2-(3-Bromo-benzylsulfanyl)-ethyl]-2,6-dichloro-benzamide] | 74 to 76 | – | 90.1 | good activity | 12.3 | 38.6
5 | COc1ccc(CSCCNC(=O)c2c(Cl)cccc2Cl)cc1 [Compound 26, 2,6-Dichloro-N-[2-(4-methoxy-benzylsulfanyl)-ethyl]-benzamide] | 80 to 81 | 1.6 | 1.1 | loss of activity | 6.7 | 12.7
6 | O=C(NCC[S+]([O-])Cc1cccc(O)c1)c1c(Cl)cccc1Cl (stereo not drawn) [Compound 33, 2,6-Dichloro-N-[2-(3-hydroxy-phenylmethanesulfinyl)-ethyl]-benzamide] | 165 to 166 | -23.7 | 15.9 | No tested substitutions in the linker region were well tolerated | 2.8 | 4.4
7 | O=C(NCCSCc1cccc(Br)c1)c1c(Br)cccc1Br [Compound 55, 2,6-Dibromo-N-[2-(3-bromo-benzylsulfanyl)-ethyl]-benzamide] | 70 to 72 | – | 87.3 | maintained activity | 9.8 | 23.9
8 | O=C(NCCSCc1cccc(F)c1)c1c(Cl)cccc1Cl [Compound 47, 2,6-Dichloro-N-[2-(3-fluoro-benzylsulfanyl)-ethyl]-benzamide] | 70 to 72 | 10.2 | 36.1 | did not yield good activity | 2.6 | 3.7
9 | O=Cc1cccc(CSCCNC(=O)c2c(Cl)cccc2Cl)c1 [Compound 49, 2,6-Dichloro-N-[2-(3-formyl-benzylsulfanyl)-ethyl]-benzamide] | 63 to 65 | 19.9 | 36.4 | did not yield good activity | 1.5 | −2.1
10 | CCOC(=O)c1cccc(CSCCNC(=O)c2c(Cl)cccc2Cl)c1 [Compound 43, 3-[2-(2,6-Dichloro-benzoylamino)-ethylsulfanylmethyl]-benzoic Acid Ethyl Ester] | 43 to 45 | 3 | 10.1 | did not yield good activity | 5.8 | 5.4
11 | O=C(NCCSCc1cccc(C(F)(F)F)c1)c1c(Cl)cccc1Cl [Compound 50, 2,6-Dichloro-N-[2-(3-trifluoromethyl-benzylsulfanyl)-ethyl]-benzamide] | 54 to 55 | – | 93.4 | good activity | 19 | –
12 | O=C(NCCSCc1cccc(F)c1)c1c(F)cccc1F [Compound 46, 2,6-Difluoro-N-[2-(3-fluoro-benzylsulfanyl)-ethyl]-benzamide] | 39 to 41 | -16.8 | -15.5 | – | 0.1 | 1.8
13 | NC(=O)c1cccc(CSCCNC(=O)c2c(Cl)cccc2Cl)c1 [Compound 45, N-[2-(3-Carbamoyl-benzylsulfanyl)-ethyl]-2,6-dichloro-benzamide] | 148 to 150 | 6.2 | 32.3 | did not yield good activity | −2.8 | −8.6

Now from value to molecule, other results behind:

Row | melting point [°C] | SMILES | inhibition at 10 µM (Aβ secretion) [%] | inhibition at 30 µM (Aβ secretion) [%] | Aβ secretion inhibiting activity (structure activity summary) (Aβ secretion) | Cell protein (% decrease) 10 μM Mean (H4βAPP695 wt cells) [%] | Cell protein (% decrease) 30 μM Mean (H4βAPP695 wt cells) [%]
14 | 46 to 47 | O=C(NCCSCc1cccc(NC(=O)C2CC2)c1)c1c(Cl)cccc1Cl [Compound 69, 2,6-Dichloro-N-(2-[3-(cyclopropanecarbonyl-amino)-benzylsulfanyl]-ethyl)-benzamide] | -21.4 | -2 | did not yield good activity | 3 | 3.2
15 | 41 to 43 | O=C(NCCSCc1cccc(Cl)c1)c1c(F)cccc1F [Compound 67, N-[2-(3-Chloro-benzylsulfanyl)-ethyl]-2,6-difluoro-benzamide] | 4.9 | 21.6 | not well tolerated | 5.1 | 8.1
16 | 55 to 57 | O=C(NCCSCc1cc(O)cc(O)c1)c1c(Cl)cccc1Cl [Compound 59, 2,6-Dichloro-N-[2-(3,5-dihydroxy-benzylsulfanyl)-ethyl]-benzamide] | 3.1 | 17.2 | lost activity | −0.4 | −0.7
17 | 166 to 168 | N#Cc1c(Cl)cccc1CSCCNC(=O)c1c(Cl)cccc1Cl [Compound 62, 2,6-Dichloro-N-[2-(3-chloro-2-cyano-benzylsulfanyl)-ethyl]-benzamide] | 48.7 | 52.3 | – | 3.5 | 1.3
18 | 46 to 47 | COc1cc(CSCCNC(=O)c2c(Cl)cccc2Cl)cc(OC)c1 [Compound 60, 2,6-Dichloro-N-[2-(3,5-dimethoxy-benzylsulfanyl)-ethyl]-benzamide] | 47.9 | 80.4 | could be tolerated | 2 | −8.7
19 | 174 to 176 | O=C(NCC[S+]([O-])Cc1cccc(Cl)c1)c1c(Cl)cccc1Cl (stereo not drawn) [Compound 71, 2,6-Dichloro-N-[2-(3-chloro-phenylmethanesulfinyl)-ethyl]-benzamide] | 4 | -16.5 | No tested substitutions in the linker region were well tolerated | −4.9 | 7.3
20 | 70 to 72 | O=C(NCCOCc1cccc(Cl)c1)c1c(Cl)cccc1Cl [Compound 72, 2,6-Dichloro-N-[2-(3-chloro-benzyloxy)-ethyl]-benzamide] | 10.5 | -5.1 | No tested substitutions in the linker region were well tolerated | −9.9 | 4.2
